In patent US9695155B2, “Herbicidal substituted pyrimidinyloxy benzene compounds” (E. I. DU PONT DE NEMOURS AND COMPANY, priority 2013, dated 2017):

Tests used:
chickweed = assay: Test D preemergence; format: in vivo, Stellaria media; details: Stellaria media, pre-emergence, scale 0-100, read-out: Plant response rating, Chickweed
How it was run: (§1)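 Greenhouse herbicide screen. Sowing into silt loam for preemergence application; foliar application to 2–18 cm seedlings in potting mix for postemergence. 0–100 visual control rating after 7–21 d.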

galium [1] = assay: Test D preemergence; format: in vivo, Galium aparine; details: Galium, pre-emergence, scale 0-100, read-out: Plant response rating, Galium
How it was run: as §1

green foxtail = assay: Test D preemergence; format: in vivo, Setaria viridis; details: Setaria viridis, pre-emergence, scale 0-100, read-out: Plant response rating, Foxtail, Green
How it was run: as §1

kochia = assay: Test D preemergence; format: in vivo, Kochia scoparia; details: Bassia scoparia, pre-emergence, scale 0-100, read-out: Plant response rating, Kochia
How it was run: as §1

galium [2] = assay: Test D postemergence; format: in vivo, Galium aparine; details: Galium, post-emergence, scale 0 to 100 (0 no effect, 100 complete control), read-out: Plant response rating, Galium
How it was run: as §1

Italian ryegrass = assay: Test D postemergence; format: in vivo, Lolium multiflorum; details: Lolium multiflorum, post-emergence, scale 0 to 100 (0 no effect, 100 complete control), read-out: Plant response rating, Ryegrass, Italian
How it was run: as §1

lambsquarters = assay: Test D postemergence; format: in vivo, Chenopodium album; details: Chenopodium album, post-emergence, scale 0 to 100 (0 no effect, 100 complete control), read-out: Plant response rating, Lambsquarters
How it was run: as §1

[3] = test system: waterhemp_RES2 (ALS & HPPD resistant common waterhemp); assay: Test E postemergence; format: in vivo, Amaranthus rudis; details: Amaranthus tuberculatus, post-emergence, read-out: Plant response rating, Waterhemp_RES2
How it was run: (§2)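 Test chemicals formulated in a non-phytotoxic solvent mixture containing a surfactant were applied preemergence to seeds in silt loam soil or postemergence to plants at the 1- to 4-leaf stage in potting mix. After 14 to 21 days in a greenhouse, injury was visually rated against controls on a 0-100 scale (0 = no effect, 100 = complete control).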

waterhemp = assay: Test E postemergence; format: in vivo, Amaranthus rudis; details: Amaranthus tuberculatus, post-emergence, Postemergence, scale 0 to 100, read-out: Plant response rating, Waterhemp
How it was run: as §2

fall panicum = assay: Test E postemergence; format: in vivo, Panicum dichotomiflorum; details: Panicum dichotomiflorum, post-emergence, read-out: Plant response rating, Panicum, Fall
How it was run: as §2

barnyardgrass = assay: Test E postemergence; format: in vivo, Echinochloa crus-galli; details: Echinochloa crus-galli, post-emergence, read-out: Plant response rating, Barnyardgrass
How it was run: as §2

dayflower = assay: Test E postemergence; format: in vivo, Commelina virginica; details: Commelina virginica, post-emergence, read-out: Plant response rating, Dayflower, VA
How it was run: as §2

hairy beggarticks = assay: Test E postemergence; format: in vivo, Bidens pilosa; details: Bidens pilosa, post-emergence, read-out: Plant response rating, Beggarticks
How it was run: as §2

[4] = Postemergence, 31 g ai/ha, scale 0 to 100
[5] = Postemergence, 62 g ai/ha, scale 0 to 100
[6] = Postemergence, 125 g ai/ha, scale 0 to 100
[7] = Postemergence, 250 g ai/ha, scale 0 to 100
[8] = postemergence, 16 g ai/ha, scale 0 to 100, 0 no effect, 100 complete control

N#Cc1cccc(Oc2ncc(Br)cn2)c1-n1cc(C(F)(F)F)cn1 [Compound 59, 3-[(5-bromo-2-pyrimidinyl)oxy]-2-[4-(trifluoromethyl)-1H-pyrazol-1-yl]benzonitrile]
pest or weed control at 31 g/ha (chickweed; 31 g ai/ha): 100% | pest or weed control at 62 g/ha (chickweed; 62 g ai/ha): 100% | pest or weed control at 125 g/ha (chickweed; 125 g ai/ha): 100% | pest or weed control at 250 g/ha (chickweed; 250 g ai/ha): 95% | pest or weed control at 31 g/ha (galium [1]; 31 g ai/ha): 0% | pest or weed control at 62 g/ha (galium [1]; 62 g ai/ha): 95% | pest or weed control at 125 g/ha (galium [1]; 125 g ai/ha): 60% | pest or weed control at 250 g/ha (galium [1]; 250 g ai/ha): 100% | pest or weed control at 31 g/ha (green foxtail; 31 g ai/ha): 35% | pest or weed control at 62 g/ha (green foxtail; 62 g ai/ha): 100% | pest or weed control at 125 g/ha (green foxtail; 125 g ai/ha): 100% | pest or weed control at 250 g/ha (green foxtail; 250 g ai/ha): 100% | pest or weed control at 31 g/ha (kochia; 31 g ai/ha): 90% | pest or weed control at 62 g/ha (kochia; 62 g ai/ha): 80% | pest or weed control at 125 g/ha (kochia; 125 g ai/ha): 100% | pest or weed control at 250 g/ha (kochia; 250 g ai/ha): 100% | pest or weed control at 31 g/ha (galium [2]; 31 g ai/ha): 75% | pest or weed control at 62 g/ha (galium [2]; 62 g ai/ha): 80% | pest or weed control at 125 g/ha (galium [2]; 125 g ai/ha): 95% | pest or weed control at 250 g/ha (galium [2]; 250 g ai/ha): 95% | pest or weed control at 31 g/ha (Italian ryegrass; 31 g ai/ha): 10% | pest or weed control at 62 g/ha (Italian ryegrass; 62 g ai/ha): 10% | pest or weed control at 125 g/ha (Italian ryegrass; 125 g ai/ha): 40% | pest or weed control at 250 g/ha (Italian ryegrass; 250 g ai/ha): 50% | pest or weed control at 31 g/ha (lambsquarters; 31 g ai/ha): 90% | pest or weed control at 62 g/ha (lambsquarters; 62 g ai/ha): 85% | pest or weed control at 125 g/ha (lambsquarters; 125 g ai/ha): 80% | pest or weed control at 250 g/ha (lambsquarters; 250 g ai/ha): 95% | pest or weed control at 31 g/ha [3, 4]: 85% | pest or weed control at 62 g/ha [3, 5]: 90% | pest or weed control at 125 g/ha [3, 6]: 95% | pest or weed control at 250 g/ha [3, 7]: 100% | pest or weed control at 16 g/ha [3, 8]: 75% | pest or weed control at 31 g/ha (waterhemp; 31 g ai/ha): 65% | pest or weed control at 62 g/ha (waterhemp; 62 g ai/ha): 90% | pest or weed control at 125 g/ha (waterhemp; 125 g ai/ha): 90% | pest or weed control at 250 g/ha (waterhemp; 250 g ai/ha): 100% | pest or weed control at 31 g/ha (fall panicum; [4]): 20% | pest or weed control at 62 g/ha (fall panicum; [5]): 20% | pest or weed control at 125 g/ha (fall panicum; [6]): 30% | pest or weed control at 250 g/ha (fall panicum; [7]): 45% | pest or weed control at 16 g/ha (fall panicum; [8]): 10% | pest or weed control at 31 g/ha (barnyardgrass; [4]): 0% | pest or weed control at 62 g/ha (barnyardgrass; [5]): 10% | pest or weed control at 125 g/ha (barnyardgrass; [6]): 15% | pest or weed control at 250 g/ha (barnyardgrass; [7]): 30% | pest or weed control at 16 g/ha (barnyardgrass; [8]): 0% | pest or weed control at 31 g/ha (dayflower; [4]): 35% | pest or weed control at 62 g/ha (dayflower; [5]): 50% | pest or weed control at 125 g/ha (dayflower; [6]): 70% | pest or weed control at 250 g/ha (dayflower; [7]): 100% | pest or weed control at 16 g/ha (dayflower; [8]): 20% | pest or weed control at 31 g/ha (hairy beggarticks; [4]): 60% | pest or weed control at 62 g/ha (hairy beggarticks; [5]): 60% | pest or weed control at 125 g/ha (hairy beggarticks; [6]): 70% | pest or weed control at 250 g/ha (hairy beggarticks; [7]): 95% | pest or weed control at 16 g/ha (hairy beggarticks; [8]): 50%
